Data published in the supplement of paper PMC4862054.

Legend:
Test in all cases: normalised response (% of control), CellTox Green; higher = less cell death (100 = DMSO, 0 = benzethonium chloride kill control)
Conditions in all cases: incubation time: 72 h
MDA-MB-231 = test system: MDA-MB-231
In short: (§1)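 Each value is the plate-normalised signal at one concentration of the series. Breast cancer cell lines (20 µl suspension) were incubated 72 h in 384-well plates with compound at 5 concentrations in 10-fold steps over a compound-specific 10,000-fold range. CellTox Green and then CellTiter-Glo were read, and each plate was scaled to 0.1 % DMSO (100) and a positive kill control (0).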

MCF-10A = test system: MCF-10A
In short: as §1

CAL-51 = test system: CAL-51
In short: as §1

HCC1143 = test system: HCC1143
In short: as §1

HDQ-P1 = test system: HDQ-P1
In short: as §1

MDA-MB-436 = test system: MDA-MB-436
In short: as §1

Hs578T = test system: Hs578T
In short: as §1

BT-549 = test system: BT-549
In short: as §1

CAL-85-1 = test system: CAL-85-1
In short: as §1

MDA-MB-453 = test system: MDA-MB-453
In short: as §1

CAL-120 = test system: CAL-120
In short: as §1

MFM-223 = test system: MFM-223
In short: as §1

HCC1599 = test system: HCC1599
In short: as §1

DU-4475 = test system: DU-4475
In short: as §1

MDA-MB-468 = test system: MDA-MB-468
In short: as §1

BT-474 = test system: BT-474
In short: as §1

HCC1937 = test system: HCC1937
In short: as §1

CAL-148 = test system: CAL-148
In short: as §1

SMILES	normalised response (MDA-MB-231) [%]	normalised response (MCF-10A) [%]	normalised response (CAL-51) [%]	normalised response (HCC1143) [%]	normalised response (HDQ-P1) [%]	normalised response (MDA-MB-436) [%]	normalised response (Hs578T) [%]	normalised response (BT-549) [%]	normalised response (CAL-85-1) [%]	normalised response (MDA-MB-453) [%]	normalised response (CAL-120) [%]	normalised response (MFM-223) [%]	normalised response (HCC1599) [%]	normalised response (DU-4475) [%]	normalised response (MDA-MB-468) [%]	normalised response (BT-474) [%]	normalised response (HCC1937) [%]	normalised response (CAL-148) [%]
COC1=CC(c2cc3ccccc3[nH]2)=N/C1=C\c1[nH]c(C)cc1C [Obatoclax] (10000 nM)	0.38	74.2	-16.5	91.9	102	102	129	78.2	117	96.2	99.2	96.7	99.9	101	82.9	94.9	95.4	77.3
CC(=O)O[C@H]1C(=O)[C@@]2(C)[C@H]([C@H](OC(=O)c3ccccc3)[C@]3(O)C[C@H](OC(=O)[C@H](O)[C@@H](NC(=O)c4ccccc4)c4ccccc4)C(C)=C1C3(C)C)[C@]1(OC(C)=O)CO[C@@H]1C[C@@H]2O [Paclitaxel] (100 nM)	-43	-6.43	25.6	99.6	77.4	62.8	48.5	65.9	21.5	98.7	81.6	51.4	82.7	90.4	4.61	49.4	84.6	66.4
CCOc1cc2ncc(C#N)c(Nc3ccc(OCc4ccccn4)c(Cl)c3)c2cc1NC(=O)/C=C/CN(C)C [Neratinib] (1000 nM)	6.81	115	95.8	105	55.7	104	120	101	54	99.9	71.7	100	106	94.7	-68.6	77.1	95.7	77.3
Cn1cnc2c(F)c(Nc3ccc(Br)cc3F)c(C(=O)NOCCO)cc21 [MEK-162] (100 nM)	50.2	104	103	115	87.6	105	76.4	111	98.2	106	99.8	91.5	90.6	87.3	139	101	60.2	98.4
CC(=O)O[C@H]1C(=O)[C@@]2(C)[C@H]([C@H](OC(=O)c3ccccc3)[C@]3(O)C[C@H](OC(=O)[C@H](O)[C@@H](NC(=O)c4ccccc4)c4ccccc4)C(C)=C1C3(C)C)[C@]1(OC(C)=O)CO[C@@H]1C[C@@H]2O [Paclitaxel] (1000 nM)	-30	1.34	38.7	87.3	81.5	49.4	18.5	56.5	41.7	92.1	82.8	58.8	86.6	95.4	-32.9	43.1	71	86.3
CC(C)C[C@H](NC(=O)[C@H](Cc1ccccc1)NC(=O)c1cnccn1)B(O)O [Bortezomib] (1000 nM)	-42.8	15.3	15.4	27.3	9.5	6.1	39.2	43.7	-48	70.9	14.2	53.7	81.6	76.1	-84	59.7	25.3	38
COc1c(C)cnc(Cn2cnc3c(Cl)nc(N)nc32)c1C [BIIB021] (1000 nM)	71.8	1.93	71.2	90.5	90.4	80.9	63.4	139	71.3	102	95.5	99.3	107	68.5	135	77.3	108	26.9
COc1ncc(-c2ccc3nccc(-c4ccnnc4)c3c2)cc1NS(=O)(=O)c1ccc(F)cc1F (100 nM)	91.2	97.7	70	110	86	93.5	85.2	94.8	99.1	95	102	76.5	106	99.6	89.5	69.1	90.5	67
C#Cc1cccc(Nc2ncnc3cc(OC)c(OCCCCCCC(=O)NO)cc23)c1 [CUDC-101] (10000 nM)	25.8	48.6	4.75	91.9	84.6	57.5	29.1	108	-59	83.7	29.1	36.9	79.8	82.4	-22.4	10.6	97.7	-3.26
CC(C)C[C@H](NC(=O)[C@H](Cc1ccccc1)NC(=O)c1cnccn1)B(O)O [Bortezomib] (100 nM)	-41.1	74	-29	83.5	9.79	28.8	15.4	55.3	-7.21	92.7	35.5	39.2	87.5	89.7	-55.4	67.6	-5.94	-26.8
CCOc1cc2ncc(C#N)c(Nc3ccc(OCc4ccccn4)c(Cl)c3)c2cc1NC(=O)/C=C/CN(C)C [Neratinib] (100 nM)	109	114	115	115	99.5	97.8	90.3	105	93.7	110	106	103	107	106	75.7	78.8	96	100
C#Cc1cccc(Nc2ncnc3cc(OC)c(OCCCCCCC(=O)NO)cc23)c1 [CUDC-101] (1000 nM)	49.2	100	86.1	85.1	101	72.7	98.8	142	-33	65.4	90.9	85	82.2	81.3	35.1	83.7	113	74.4
CCS(=O)(=O)c1cccc(-c2cc(C(=O)NC3CCN(C)CC3)c(C)c3[nH]c4ncc(C)cc4c23)c1 [TAK-901] (1000 nM)	57.7	90	36.5	87.8	55	69.2	106	41	58.9	105	84.2	85	97.1	97	74.3	91.5	95.2	84.6
COc1c(C)cnc(Cn2cnc3c(Cl)nc(N)nc32)c1C [BIIB021] (10000 nM)	48.7	52.8	58.2	126	40.1	106	89.7	130	39	93.5	94.9	93.4	113	80.3	96.8	49.4	107	49.2
C[C@@H]1C=C2C(=O)O[C@@H]3CC[C@H](C1)[C@]23O [Galiellalactone] (50000 nM)	121	102	96.6	112	92.3	105	122	98.7	46.6	107	102	106	114	108	135	102	81.2	103
COC1=C2C[C@@H](C)C[C@H](OC)[C@H](O)[C@@H](C)/C=C(\C)[C@H](OC(N)=O)[C@@H](OC)/C=C\C=C(/C)C(=O)NC(=CC1=O)C2=O [Geldanamycin] (10000 nM)	6.32	-24.5	39.3	99.5	65.2	80.8	98	99	3.38	82	75.1	44.1	99.2	68.2	-27.4	35.9	-41.7	54.8
COc1ncc(-c2ccc3nccc(-c4ccnnc4)c3c2)cc1NS(=O)(=O)c1ccc(F)cc1F (1000 nM)	64.3	73.1	46.1	107	78.8	104	35.8	70.9	52.1	73.4	102	78.7	88.6	83.9	-111	36.8	7.68	45
COc1cccc2c1C(=O)c1c(O)c3c(c(O)c1C2=O)C[C@@](O)(C(C)=O)C[C@@H]3O[C@H]1C[C@H](N)[C@H](O)[C@H](C)O1 [Daunorubicin] (1000 nM)	127	106	42.6	100	101	47.9	144	145	76.2	120	99.2	101	138	104	322	101	137	75
C[C@@]1(C(=O)Nc2ccc(F)nc2)CCCN1c1nc(Nc2cc(C3CC3)n[nH]2)c2cccn2n1 (1000 nM)	76.2	80.4	49.5	68.5	82.1	90.8	110	104	95	104	98.1	76.7	97.6	90.6	52.5	97.7	93.8	88.8
C[C@@]1(C(=O)Nc2ccc(F)nc2)CCCN1c1nc(Nc2cc(C3CC3)n[nH]2)c2cccn2n1 (10000 nM)	49.8	25.8	18.7	-57.9	34.9	90.4	82.1	65.3	67.8	109	26.9	71.2	90.1	90.2	49.8	95.3	104	59.1
Cn1c(=O)c(F)c(Nc2ccc(I)cc2F)c2c(=O)n(C[C@@H](O)CO)cnc21 [TAK-733] (1000 nM)	64.2	110	105	128	94.6	97.9	38	119	41	109	87.2	104	113	70.7	87.6	102	102	98.7
